# Results from patent US9187472B2 (AbbVie Inc., priority 2012, dated 2015).
# Columns and labels:
# [1] = biological target: NAMPT (Homo sapiens, UniProt P43490); experiment: TR-FRET Binding Assay of NAMPT with PRPP; settings: with 200 μM PRPP and 2.5 mM ATP; 2 nM NAMPT, 2 nM probe, 16 hours equilibration
# Summary of the method: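 TR-FRET probe-displacement binding with 2 nM NAMPT, 2 nM probe and 1 nM Tb-anti-His antibody, run in the presence of 200 μM PRPP and 2.5 mM ATP at 2% DMSO. Equilibrated 16 hours before reading so test compounds could undergo enzymatic modification.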
# [2] = tested on: PC3 cells; experiment: NAMPT Cell Proliferation Assay; format: cell-based; settings: Homo sapiens, PC-3, 120 h, 5 days incubation, cell viability by Cell Titer Glo
# Summary of the method: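 PC3 cells were plated at 500 cells/well in RPMI with 10% heat-inactivated FBS, left to attach overnight, then given compounds in 10-fold dilutions from 10 μM to 1×10^−5 μM. After 5 days at 37° C and 5% CO2, viability was read by luminescence and IC50s came from sigmoidal fits of percent inhibition.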
# [3] = biological target: NAMPT (human, recombinant, C-terminally His-tagged) (Homo sapiens, UniProt P43490); experiment: Time-Resolved Fluorescence Resonance Energy Transfer (TR-FRET) Binding Assay of NAMPT; settings: without substrates; 6.8 nM NAMPT, 200 nM probe, 3 hours equilibration
# Sequence of NAMPT (human, recombinant, C-terminally His-tagged) (P43490 whole entry): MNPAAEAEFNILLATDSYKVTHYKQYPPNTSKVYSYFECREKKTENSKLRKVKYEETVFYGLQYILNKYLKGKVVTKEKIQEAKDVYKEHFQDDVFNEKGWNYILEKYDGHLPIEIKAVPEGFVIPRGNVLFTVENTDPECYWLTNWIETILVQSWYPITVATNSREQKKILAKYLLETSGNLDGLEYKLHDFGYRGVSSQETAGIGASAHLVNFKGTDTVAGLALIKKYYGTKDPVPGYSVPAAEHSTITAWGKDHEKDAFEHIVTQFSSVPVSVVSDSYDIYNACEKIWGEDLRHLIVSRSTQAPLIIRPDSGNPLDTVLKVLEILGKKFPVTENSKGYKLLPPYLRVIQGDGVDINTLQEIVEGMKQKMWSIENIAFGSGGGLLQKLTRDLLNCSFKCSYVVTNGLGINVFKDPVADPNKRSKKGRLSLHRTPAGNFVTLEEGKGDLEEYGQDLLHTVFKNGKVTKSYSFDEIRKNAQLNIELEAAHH
# Summary of the method: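 11-pt half-log compound series; final 6.8 nM NAMPT, 200 nM OG488 nicotinamide-competitive probe, 1 nM Tb-anti-His Ab, 2% DMSO, HEPES pH 7.5/NaCl/MgCl2/DTT/glycerol buffer. 3 h RT equilibration. Em520/Em495 ratio (Ex 337 nm), control-normalized, 4-parameter fit → IC50.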
# Sequence of NAMPT (P43490 whole entry): as above
IC50 [1],IC50 [2],IC50 [3],Structure (SMILES)
0.278 nM,5.73 nM,74.2 nM,"O=C(NCc1ccn2ccnc2c1)Nc1ccc(C2CCN(C(=O)C3CCCO3)CC2)cc1 (stereo not drawn) [Example 220, 1-(imidazo[1,2-a]pyridin-7-ylmethyl)-3-{4-[1-(tetrahydrofuran-2-ylcarbonyl)piperidin-4-yl]phenyl}urea]"
0.352 nM,7.82 nM,120 nM,"O=C(NCc1ccn2ccnc2c1)Nc1ccc(C2CCN(C(=O)C3CCOCC3)CC2)cc1 [Example 221, 1-(imidazo[1,2-a]pyridin-7-ylmethyl)-3-{4-[1-(tetrahydro-2H-pyran-4-ylcarbonyl)piperidin-4-yl]phenyl}urea]"
0.192 nM,4.08 nM,112 nM,"O=C(NCc1ccn2ccnc2c1)Nc1ccc(C2CCN(C(=O)C3COCCO3)CC2)cc1 (stereo not drawn) [Example 222, 1-{4-[1-(1,4-dioxan-2-ylcarbonyl)piperidin-4-yl]phenyl}-3-(imidazo[1,2-a]pyridin-7-ylmethyl)urea]"
0.354 nM,7.08 nM,109 nM,"O=C(NCc1ccn2ccnc2c1)Nc1ccc(C2CCN(C(=O)CC3CCOCC3)CC2)cc1 [Example 223, 1-(imidazo[1,2-a]pyridin-7-ylmethyl)-3-{4-[1-(tetrahydro-2H-pyran-4-ylacetyl)piperidin-4-yl]phenyl}urea]"
0.555 nM,23 nM,233 nM,"O=C(NCc1ccn2ccnc2c1)Nc1ccc(C2CCN(C(=O)CN3CCOCC3)CC2)cc1 [Example 224, 1-(imidazo[1,2-a]pyridin-7-ylmethyl)-3-{4-[1-(morpholin-4-ylacetyl)piperidin-4-yl]phenyl}urea]"
0.673 nM,9.27 nM,155 nM,"O=C(NCc1ccn2ccnc2c1)Nc1ccc(C2CCN(C(=O)CC3CCCO3)CC2)cc1 (stereo not drawn) [Example 225, 1-(imidazo[1,2-a]pyridin-7-ylmethyl)-3-{4-[1-(tetrahydrofuran-2-ylacetyl)piperidin-4-yl]phenyl}urea]"
0.608 nM,7.26 nM,113 nM,"CC(C)(O)CC(=O)N1CCC(c2ccc(NC(=O)NCc3ccn4ccnc4c3)cc2)CC1 [Example 226, 1-{4-[1-(3-hydroxy-3-methylbutanoyl)piperidin-4-yl]phenyl}-3-(imidazo[1,2-a]pyridin-7-ylmethyl)urea]"
0.273 nM,6.28 nM,16.2 nM,"CC(C)(O)C(=O)N1CCC(c2ccc(NC(=O)NCc3ccn4ccnc4c3)cc2)CC1 [Example 227, 1-{4-[1-(2-hydroxy-2-methylpropanoyl)piperidin-4-yl]phenyl}-3-(imidazo[1,2-a]pyridin-7-ylmethyl)urea]"
0.238 nM,8.56 nM,49.4 nM,"CC(C)C(=O)N1CCC(c2ccc(NC(=O)NCc3ccn4ccnc4c3)cc2)CC1 [Example 228, 1-(imidazo[1,2-a]pyridin-7-ylmethyl)-3-{4-[1-(2-methylpropanoyl)piperidin-4-yl]phenyl}urea]"
0.398 nM,1.06 nM,13.6 nM,"O=C(NCc1ccn2ccnc2c1)Nc1ccc(C2CCN(C(=O)c3ccccc3)CC2)cc1 [Example 229, 1-[4-(1-benzoylpiperidin-4-yl)phenyl]-3-(imidazo[1,2-a]pyridin-7-ylmethyl)urea]"
0.169 nM,7.2 nM,294 nM,"CC(C)(O)C(=O)N1CCC(c2ccc(C(=O)NCc3ccn4ccnc4c3)cc2)CC1 [Example 230, 4-[1-(2-hydroxy-2-methylpropanoyl)piperidin-4-yl]-N-(imidazo[1,2-a]pyridin-7-ylmethyl)benzamide]"
0.546 nM,35.1 nM,817 nM,"O=C(NCc1ccn2ccnc2c1)c1ccc(C2CCN(C(=O)C3CCOC3)CC2)cc1 (stereo not drawn) [Example 231, N-(imidazo[1,2-a]pyridin-7-ylmethyl)-4-[1-(tetrahydrofuran-3-ylcarbonyl)piperidin-4-yl]benzamide]"
0.277 nM,9.27 nM,396 nM,"O=C(NCc1ccn2ccnc2c1)c1ccc(C2CCN(C(=O)C3CCOCC3)CC2)cc1 [Example 232, N-(imidazo[1,2-a]pyridin-7-ylmethyl)-4-[1-(tetrahydro-2H-pyran-4-ylcarbonyl)piperidin-4-yl]benzamide]"
0.401 nM,9.37 nM,495 nM,"O=C(NCc1ccn2ccnc2c1)c1ccc(C2CCN(C(=O)C3COCCO3)CC2)cc1 (stereo not drawn) [Example 233, 4-[1-(1,4-dioxan-2-ylcarbonyl)piperidin-4-yl]-N-(imidazo[1,2-a]pyridin-7-ylmethyl)benzamide]"
0.736 nM,105 nM,904 nM,"O=C(NCc1ccn2ccnc2c1)c1ccc(C2CCN(C(=O)C3CCS(=O)(=O)CC3)CC2)cc1 [Example 234, 4-{1-[(1,1-dioxidotetrahydro-2H-thiopyran-4-yl)carbonyl]piperidin-4-yl}-N-(imidazo[1,2-a]pyridin-7-ylmethyl)benzamide]"
0.369 nM,55.5 nM,494 nM,"O=C(NCc1ccn2ccnc2c1)c1ccc(C2CCN(C(=O)CC3CCCO3)CC2)cc1 (stereo not drawn) [Example 235, N-(imidazo[1,2-a]pyridin-7-ylmethyl)-4-[1-(tetrahydrofuran-2-ylacetyl)piperidin-4-yl]benzamide]"
0.243 nM,13.8 nM,604 nM,"O=C(NCc1ccn2ccnc2c1)c1ccc(C2CCN(C(=O)CC3CCOCC3)CC2)cc1 [Example 236, N-(imidazo[1,2-a]pyridin-7-ylmethyl)-4-[1-(tetrahydro-2H-pyran-4-ylacetyl)piperidin-4-yl]benzamide]"
0.285 nM,37.2 nM,451 nM,"CC(C)OCC(=O)N1CCC(c2ccc(C(=O)NCc3ccn4ccnc4c3)cc2)CC1 [Example 237, N-(imidazo[1,2-a]pyridin-7-ylmethyl)-4-{1-[(propan-2-yloxy)acetyl]piperidin-4-yl}benzamide]"
0.187 nM,2.57 nM,123 nM,"CC[C@H](C)C(=O)N1CCC(c2ccc(C(=O)NCc3ccn4ccnc4c3)cc2)CC1 [Example 238, N-(imidazo[1,2-a]pyridin-7-ylmethyl)-4-{1-[(2S)-2-methylbutanoyl]piperidin-4-yl}benzamide]"
0.771 nM,17.7 nM,308 nM,"CC(C)C(=O)N1CCC(c2ccc(C(=O)NCc3ccn4ccnc4c3)cc2)CC1 [Example 239, N-(imidazo[1,2-a]pyridin-7-ylmethyl)-4-[1-(2-methylpropanoyl)piperidin-4-yl]benzamide]"
8.75 nM,651 nM,7350 nM,"COCCC(=O)N(Cc1ccc(C#N)cc1)c1ccc(C(=O)NCc2ccc3nccn3c2)cc1 [Example 240, 4-[(4-cyanobenzyl)(3-methoxypropanoyl)amino]-N-(imidazo[1,2-a]pyridin-6-ylmethyl)benzamide]"
0.169 nM,8.48 nM,67.4 nM,"CC(=O)N1CC=C(c2ccc(C(=O)NCc3ccn4ccnc4c3)s2)CC1 [Example 241, 5-(1-acetyl-1,2,3,6-tetrahydropyridin-4-yl)-N-(imidazo[1,2-a]pyridin-7-ylmethyl)thiophene-2-carboxamide]"
0.169 nM,7.56 nM,57.1 nM,"CS(=O)(=O)N1CC=C(c2ccc(C(=O)NCc3ccn4ccnc4c3)s2)CC1 [Example 242, N-(imidazo[1,2-a]pyridin-7-ylmethyl)-5-[1-(methylsulfonyl)-1,2,3,6-tetrahydropyridin-4-yl]thiophene-2-carboxamide]"
0.169 nM,28 nM,169 nM,"O=C(NCc1ccn2ccnc2c1)Nc1ccc(C2CCN(C(=O)C3CCS(=O)(=O)CC3)CC2)cc1 [Example 243, 1-(4-{1-[(1,1-dioxidotetrahydro-2H-thiopyran-4-yl)carbonyl]piperidin-4-yl}phenyl)-3-(imidazo[1,2-a]pyridin-7-ylmethyl)urea]"
1.69 nM,7040 nM,> 10000 nM,"O=C(NCc1ccn2ccnc2c1)c1cnc(N2C(=O)CC[C@H]2CO)s1 [Example 244, 2-[(2S)-2-(hydroxymethyl)-5-oxopyrrolidin-1-yl]-N-(imidazo[1,2-a]pyridin-7-ylmethyl)-1,3-thiazole-5-carboxamide]"
0.502 nM,5500 nM,2890 nM,"C[C@@H]1COC(=O)N1c1ncc(C(=O)NCc2ccn3ccnc3c2)s1 [Example 245, N-(imidazo[1,2-a]pyridin-7-ylmethyl)-2-[(4R)-4-methyl-2-oxo-1,3-oxazolidin-3-yl]-1,3-thiazole-5-carboxamide]"
0.22 nM,2.43 nM,73.2 nM,"O=C(NCc1ccn2ccnc2c1)c1ccc(C2=CCN(S(=O)(=O)C3CC3)CC2)s1 [Example 246, 5-[1-(cyclopropylsulfonyl)-1,2,3,6-tetrahydropyridin-4-yl]-N-(imidazo[1,2-a]pyridin-7-ylmethyl)thiophene-2-carboxamide]"
0.275 nM,1.34 nM,62.7 nM,"O=C(NCc1ccn2ccnc2c1)c1ccc(-c2cnn(CC3CCCCO3)c2)s1 (stereo not drawn) [Example 247, N-(imidazo[1,2-a]pyridin-7-ylmethyl)-5-[1-(tetrahydro-2H-pyran-2-ylmethyl)-1H-pyrazol-4-yl]thiophene-2-carboxamide]"
